According to patent publication US20070078116A1, “Method of treatment of otitis externa” (Fairfield Clinical Trials, LLC, priority 2003, published 2007):

Legend:
[1] = test system: Candida albicans (ATCC 90028); test: Filter paper disk test on agar plates containing C. albicans; assay type: cell-based; settings: 5 μL or 10 μL on paper disk, 37° C., 24-72 hours
Experimental: (§1) Candida albicans (ATCC 90028) and Aspergillis fumigatus (ATCC 16424) were tested in vitro for the effect of antifungal compositions according to embodiments of the invention. Fungal cells were obtained from the American Type Culture Collection.
(§2) C. Albicans yeast cells were grown in YM broth (Difco™ 0711-01) containing the following ingredients: 1% peptone, 1% yeast extract and 2% glucose. The cells were grown at 37° C., harvested by centrifugation, resuspended in the same medium and stored frozen at −80° C. The cells were used at a concentration of about 1×10^6 cells/mL. A. fumigatus was cultured on solid MPG containing 20 g/L malt extract (Difco™ 21860); 1 g/L Difco™ 211677); 20 g/L sucrose and 15 g/L Bacto-agar (Difco™ 140-07-04) in water, at 37° C. for 7 to 10 days. Conidia were harvested by flooding the medium with sterile water, filtered through glass wool to exclude hyphal fragments, washed by centrifugation (5000 xg for 10 minutes at 4° C., resuspended at about 1×10^6 conidia/mL in water and stored at −80° C. until used.
(§3) For testing, A. fumigatus conidia and C. albicans cells were thawed. […]
(§4) Samples (5 μL, 10 μL or 20 μL as indicated in the Figures) of liquid drug formulation were placed on sterile filter paper disks and the disks allowed to air dry 15-30 minutes at room temperature in a Class II biosafety hood. […] A portion of each sample was analyzed for potency. […]

[2] = test system: Aspergillis fumigatus (ATCC 16424); test: Filter paper disk test on agar plates containing A. fumigatus (zone of killing); assay type: cell-based; settings: 5 μL or 10 μL on paper disk, 37° C., 24-72 hours
Experimental: as §1, §2, §3, §4

`Clc1ccc(COC(Cn2ccnc2)c2ccc(Cl)cc2Cl)c(Cl)c1` (centres unmarked) [Miconazole, miconazole] was tested, and the “killing of C. albicans (visual observation of plates)” value [1] was “highly active” and the “killing of A. fumigatus (visual observation of plates)” value [2] was “highly active”.
